This passage reports inhibition, IC50 and Activity results from ChEMBL document CHEMBL2069273, “Modulation of cofilin phosphorylation by inhibition of the Lim family kinases” (Bioorg Med Chem Lett, 2012).

Experiment [1] deals with T1, LIM domain kinase 1 (Homo sapiens, UniProt P53667). The experiment can be described thus: Inhibition of LIMK1-mediated cofilin Ser3 phosphorylation in human HT1080 cells. The format is cell-based. The settings on record: HT-1080.
Target sequence in this assay (P53667 whole entry, looked up, the tested form may be a part): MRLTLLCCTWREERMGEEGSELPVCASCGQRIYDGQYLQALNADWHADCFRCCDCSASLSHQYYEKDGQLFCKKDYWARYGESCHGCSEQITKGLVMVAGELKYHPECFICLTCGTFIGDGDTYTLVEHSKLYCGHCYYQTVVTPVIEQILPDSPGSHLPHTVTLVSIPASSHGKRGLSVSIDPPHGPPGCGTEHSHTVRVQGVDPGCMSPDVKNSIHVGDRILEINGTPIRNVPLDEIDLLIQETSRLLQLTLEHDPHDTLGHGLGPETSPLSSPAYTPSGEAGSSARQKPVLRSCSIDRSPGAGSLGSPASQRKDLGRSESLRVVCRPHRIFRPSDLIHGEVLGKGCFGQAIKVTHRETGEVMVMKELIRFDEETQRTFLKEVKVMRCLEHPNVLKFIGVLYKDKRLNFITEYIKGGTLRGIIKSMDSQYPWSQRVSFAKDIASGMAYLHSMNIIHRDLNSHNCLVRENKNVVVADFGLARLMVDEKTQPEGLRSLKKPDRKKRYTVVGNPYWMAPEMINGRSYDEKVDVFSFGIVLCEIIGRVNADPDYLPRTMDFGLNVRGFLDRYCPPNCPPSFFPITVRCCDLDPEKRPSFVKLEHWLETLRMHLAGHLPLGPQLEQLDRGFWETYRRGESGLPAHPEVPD
For experiment [2], the target named is T2, LIM domain kinase 2 (Homo sapiens, UniProt P53671). The experiment can be described thus: Inhibition of LIMK2.
Target sequence in this assay (P53671 whole entry, the tested form may be a part): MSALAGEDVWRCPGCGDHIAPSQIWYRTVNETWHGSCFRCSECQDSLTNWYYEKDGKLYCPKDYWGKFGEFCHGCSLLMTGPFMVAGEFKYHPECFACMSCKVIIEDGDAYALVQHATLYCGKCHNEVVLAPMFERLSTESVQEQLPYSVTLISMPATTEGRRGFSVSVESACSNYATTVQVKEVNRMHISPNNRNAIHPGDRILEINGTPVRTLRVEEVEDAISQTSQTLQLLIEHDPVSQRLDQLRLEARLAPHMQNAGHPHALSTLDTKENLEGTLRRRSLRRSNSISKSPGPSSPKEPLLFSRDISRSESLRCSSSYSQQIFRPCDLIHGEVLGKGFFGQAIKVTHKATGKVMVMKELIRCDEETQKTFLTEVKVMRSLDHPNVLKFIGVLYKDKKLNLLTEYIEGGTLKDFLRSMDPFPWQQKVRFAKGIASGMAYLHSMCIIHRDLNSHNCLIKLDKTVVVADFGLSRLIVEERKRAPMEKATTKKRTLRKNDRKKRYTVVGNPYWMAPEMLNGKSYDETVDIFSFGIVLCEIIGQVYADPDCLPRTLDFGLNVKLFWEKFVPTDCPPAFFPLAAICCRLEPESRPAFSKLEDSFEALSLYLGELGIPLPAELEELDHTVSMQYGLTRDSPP
Experiment [3] concerns the target Epithelial discoidin domain-containing receptor 1 (Homo sapiens) (UniProt Q08345). Briefly: Binding affinity to human DDR1.
In experiment [4] the test system is Mast/stem cell growth factor receptor Kit (Homo sapiens), P10721 [V559D]. The experiment can be described thus: Binding affinity to human KIT V559D mutant.
The subject of experiment [5] is HT-1080. The experiment can be described thus: Induction of F-actin depolymerization in human HT1080 cells at 5 uM after 2 days by fluorescein-tagged phalloidin staining. In kind it is functional, cell-based.
Experiment [6] addresses Mitogen-activated protein kinase 14 (Homo sapiens, UniProt Q16539). Briefly: Binding affinity to human p38alpha.
Experiment [7] has as its target T3, Activin receptor type-1B (Homo sapiens) (UniProt P36896).
T3 sequence (whole entry): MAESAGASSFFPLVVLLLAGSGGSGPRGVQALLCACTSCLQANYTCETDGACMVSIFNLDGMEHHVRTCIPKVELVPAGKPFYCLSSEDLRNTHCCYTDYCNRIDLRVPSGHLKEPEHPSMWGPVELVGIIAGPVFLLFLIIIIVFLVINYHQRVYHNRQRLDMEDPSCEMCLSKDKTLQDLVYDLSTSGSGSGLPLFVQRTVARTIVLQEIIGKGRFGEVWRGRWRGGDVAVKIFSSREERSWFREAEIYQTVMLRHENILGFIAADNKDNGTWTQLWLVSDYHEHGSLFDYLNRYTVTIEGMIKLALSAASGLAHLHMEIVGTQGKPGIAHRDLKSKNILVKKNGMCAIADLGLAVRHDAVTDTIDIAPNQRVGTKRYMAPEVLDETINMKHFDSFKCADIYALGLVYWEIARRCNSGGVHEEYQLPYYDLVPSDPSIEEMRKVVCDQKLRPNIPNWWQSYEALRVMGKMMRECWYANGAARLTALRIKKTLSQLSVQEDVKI
Briefly: Binding affinity to human Alk4.

Experiment [8] concerns the target T1, LIM domain kinase 1. The experiment can be described thus: Inhibition of LIMK1.
Target sequence in this assay (P53667 whole entry, the tested form may be a part): as the sequence (P53667 whole entry, looked up, the tested form may be a part) above
Experiment [9] has as its target Mast/stem cell growth factor receptor Kit (Homo sapiens) (UniProt P10721). Briefly: Binding affinity to human KIT.
For experiment [10], the target named is Dual specificity testis-specific protein kinase 2 (Homo sapiens, UniProt Q96S53). The experiment can be described thus: Inhibition of TESK2.
The target in experiment [11] is T2, LIM domain kinase 2. The experiment can be described thus: Binding affinity to human LIMK2.
Target sequence in this assay (P53671 whole entry, looked up, the tested form may be a part): as the sequence (P53671 whole entry, the tested form may be a part) above
The target of experiment [12] is T2, LIM domain kinase 2. Briefly: Inhibition of LIMK2-mediated cofilin Ser3 phosphorylation in human HT1080 cells. The settings on record: HT-1080. The format is cell-based.
Target sequence in this assay (P53671 whole entry, looked up, the tested form may be a part): as the sequence (P53671 whole entry, the tested form may be a part) above
Experiment [13] addresses T4, TGF-beta receptor type-1 (Homo sapiens) (UniProt P36897).
T4 sequence (whole entry): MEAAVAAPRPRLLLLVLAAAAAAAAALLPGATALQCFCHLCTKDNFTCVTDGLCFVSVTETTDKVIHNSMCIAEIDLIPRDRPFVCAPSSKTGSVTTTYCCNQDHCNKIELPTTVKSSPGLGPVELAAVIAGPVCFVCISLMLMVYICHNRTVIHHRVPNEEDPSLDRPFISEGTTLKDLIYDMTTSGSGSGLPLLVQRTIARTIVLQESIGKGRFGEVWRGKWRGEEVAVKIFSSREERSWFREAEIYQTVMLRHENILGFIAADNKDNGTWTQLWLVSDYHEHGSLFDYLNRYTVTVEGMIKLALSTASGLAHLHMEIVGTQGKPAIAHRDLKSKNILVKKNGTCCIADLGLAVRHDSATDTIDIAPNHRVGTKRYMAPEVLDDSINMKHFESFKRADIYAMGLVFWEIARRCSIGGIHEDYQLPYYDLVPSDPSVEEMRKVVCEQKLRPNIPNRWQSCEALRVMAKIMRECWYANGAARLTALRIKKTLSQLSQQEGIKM
The experiment can be described thus: Binding affinity to human TGFBR1.

Experiment [14] addresses T5, Serine/threonine-protein kinase 36 (Homo sapiens) (UniProt Q9NRP7).
T5 sequence (whole entry): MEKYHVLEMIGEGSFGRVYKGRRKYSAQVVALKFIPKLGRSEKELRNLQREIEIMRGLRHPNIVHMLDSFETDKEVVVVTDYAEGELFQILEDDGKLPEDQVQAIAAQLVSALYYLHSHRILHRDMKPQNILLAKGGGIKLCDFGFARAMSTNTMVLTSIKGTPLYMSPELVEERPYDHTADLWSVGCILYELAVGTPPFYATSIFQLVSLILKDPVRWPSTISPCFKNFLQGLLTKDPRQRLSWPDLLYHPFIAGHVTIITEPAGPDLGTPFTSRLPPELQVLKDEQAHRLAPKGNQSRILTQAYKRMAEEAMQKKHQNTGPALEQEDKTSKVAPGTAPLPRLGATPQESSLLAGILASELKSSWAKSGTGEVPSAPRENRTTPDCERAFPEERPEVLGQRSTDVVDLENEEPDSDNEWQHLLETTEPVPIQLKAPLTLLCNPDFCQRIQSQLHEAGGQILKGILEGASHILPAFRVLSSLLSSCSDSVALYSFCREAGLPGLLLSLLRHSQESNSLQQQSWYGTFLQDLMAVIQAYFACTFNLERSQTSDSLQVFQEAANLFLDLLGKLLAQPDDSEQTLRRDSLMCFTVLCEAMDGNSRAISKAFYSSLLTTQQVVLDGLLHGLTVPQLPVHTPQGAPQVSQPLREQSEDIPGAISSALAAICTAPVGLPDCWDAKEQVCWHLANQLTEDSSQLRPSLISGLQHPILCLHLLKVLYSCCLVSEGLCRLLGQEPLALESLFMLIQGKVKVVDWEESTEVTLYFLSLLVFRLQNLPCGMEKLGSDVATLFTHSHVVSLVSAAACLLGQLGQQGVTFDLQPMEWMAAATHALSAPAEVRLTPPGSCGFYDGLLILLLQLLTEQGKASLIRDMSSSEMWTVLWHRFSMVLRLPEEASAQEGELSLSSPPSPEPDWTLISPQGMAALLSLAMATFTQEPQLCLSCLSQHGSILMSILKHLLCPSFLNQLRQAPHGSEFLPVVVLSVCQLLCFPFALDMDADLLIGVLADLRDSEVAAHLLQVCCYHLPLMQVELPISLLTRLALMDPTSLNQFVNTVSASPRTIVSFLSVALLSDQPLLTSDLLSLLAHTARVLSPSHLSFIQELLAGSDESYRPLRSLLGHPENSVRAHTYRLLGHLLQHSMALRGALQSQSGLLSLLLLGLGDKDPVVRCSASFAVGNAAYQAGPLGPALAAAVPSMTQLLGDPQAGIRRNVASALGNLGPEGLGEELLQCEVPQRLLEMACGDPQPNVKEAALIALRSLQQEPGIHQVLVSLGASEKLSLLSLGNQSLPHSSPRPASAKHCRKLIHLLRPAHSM
Briefly: Binding affinity to human fused kinase.

In experiment [15] the test system is HT-1080. Briefly: Cytotoxicity against human HT1080 cells assessed as inhibition of thymidine incorporation. The format is cell-based.
Experiment [16] concerns the target Angiopoietin-1 receptor (Homo sapiens) (UniProt Q02763). Briefly: Binding affinity to human TIE2.
Experiment [17] addresses Dual specificity testis-specific protein kinase 1 (Homo sapiens, UniProt Q15569). Briefly: Inhibition of TESK1.

The source made the active and inactive calls. The rule behind the calls is not given here.

Chain of Dual specificity testis-specific protein kinase 1 (Q15569 whole entry): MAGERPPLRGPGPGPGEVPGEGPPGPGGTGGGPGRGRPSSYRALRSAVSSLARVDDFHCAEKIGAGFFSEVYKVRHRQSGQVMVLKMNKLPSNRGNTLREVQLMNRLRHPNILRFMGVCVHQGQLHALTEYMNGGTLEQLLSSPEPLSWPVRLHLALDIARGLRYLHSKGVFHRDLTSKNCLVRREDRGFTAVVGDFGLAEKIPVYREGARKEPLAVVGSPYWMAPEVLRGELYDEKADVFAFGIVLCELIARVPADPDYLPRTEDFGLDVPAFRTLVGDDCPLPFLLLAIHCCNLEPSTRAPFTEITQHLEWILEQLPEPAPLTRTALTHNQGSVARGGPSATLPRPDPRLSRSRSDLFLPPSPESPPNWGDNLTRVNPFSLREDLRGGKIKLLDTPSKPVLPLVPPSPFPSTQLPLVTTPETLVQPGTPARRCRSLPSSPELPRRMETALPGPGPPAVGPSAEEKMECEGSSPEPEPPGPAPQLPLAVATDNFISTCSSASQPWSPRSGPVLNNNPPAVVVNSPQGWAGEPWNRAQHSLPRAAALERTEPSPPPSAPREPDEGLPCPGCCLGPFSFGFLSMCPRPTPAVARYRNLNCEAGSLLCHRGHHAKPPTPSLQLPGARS
Chain of Angiopoietin-1 receptor (Homo sapiens) (Q02763 whole entry): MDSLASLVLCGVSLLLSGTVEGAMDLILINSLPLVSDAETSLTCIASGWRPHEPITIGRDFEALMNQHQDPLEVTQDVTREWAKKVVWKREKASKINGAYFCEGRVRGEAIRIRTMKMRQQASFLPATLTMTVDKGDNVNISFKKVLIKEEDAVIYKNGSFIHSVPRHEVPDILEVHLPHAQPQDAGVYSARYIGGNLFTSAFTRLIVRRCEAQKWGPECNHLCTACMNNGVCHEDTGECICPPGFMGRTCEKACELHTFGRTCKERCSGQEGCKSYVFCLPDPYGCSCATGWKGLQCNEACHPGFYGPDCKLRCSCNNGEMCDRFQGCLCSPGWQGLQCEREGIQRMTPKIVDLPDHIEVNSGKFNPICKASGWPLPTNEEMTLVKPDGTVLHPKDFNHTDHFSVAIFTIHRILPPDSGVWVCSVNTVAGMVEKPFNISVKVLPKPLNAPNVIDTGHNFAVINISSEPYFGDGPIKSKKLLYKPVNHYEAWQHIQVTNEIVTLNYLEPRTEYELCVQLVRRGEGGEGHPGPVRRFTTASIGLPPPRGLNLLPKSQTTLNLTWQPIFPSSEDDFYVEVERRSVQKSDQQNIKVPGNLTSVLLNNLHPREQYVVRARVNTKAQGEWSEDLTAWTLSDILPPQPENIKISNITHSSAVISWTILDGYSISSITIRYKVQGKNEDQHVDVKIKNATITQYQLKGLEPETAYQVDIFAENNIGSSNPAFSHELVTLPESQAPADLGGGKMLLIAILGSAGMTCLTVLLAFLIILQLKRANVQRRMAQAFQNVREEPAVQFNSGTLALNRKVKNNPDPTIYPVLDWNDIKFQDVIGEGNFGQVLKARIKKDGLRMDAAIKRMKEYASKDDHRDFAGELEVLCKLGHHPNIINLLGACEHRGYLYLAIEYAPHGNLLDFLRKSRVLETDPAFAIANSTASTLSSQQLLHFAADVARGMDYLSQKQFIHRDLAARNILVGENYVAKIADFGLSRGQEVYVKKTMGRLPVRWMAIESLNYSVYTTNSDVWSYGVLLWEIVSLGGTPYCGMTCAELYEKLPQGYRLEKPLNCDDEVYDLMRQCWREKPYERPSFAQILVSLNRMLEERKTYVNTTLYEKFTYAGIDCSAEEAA
Chain of Dual specificity testis-specific protein kinase 2 (Q96S53 whole entry, the tested form may be a part): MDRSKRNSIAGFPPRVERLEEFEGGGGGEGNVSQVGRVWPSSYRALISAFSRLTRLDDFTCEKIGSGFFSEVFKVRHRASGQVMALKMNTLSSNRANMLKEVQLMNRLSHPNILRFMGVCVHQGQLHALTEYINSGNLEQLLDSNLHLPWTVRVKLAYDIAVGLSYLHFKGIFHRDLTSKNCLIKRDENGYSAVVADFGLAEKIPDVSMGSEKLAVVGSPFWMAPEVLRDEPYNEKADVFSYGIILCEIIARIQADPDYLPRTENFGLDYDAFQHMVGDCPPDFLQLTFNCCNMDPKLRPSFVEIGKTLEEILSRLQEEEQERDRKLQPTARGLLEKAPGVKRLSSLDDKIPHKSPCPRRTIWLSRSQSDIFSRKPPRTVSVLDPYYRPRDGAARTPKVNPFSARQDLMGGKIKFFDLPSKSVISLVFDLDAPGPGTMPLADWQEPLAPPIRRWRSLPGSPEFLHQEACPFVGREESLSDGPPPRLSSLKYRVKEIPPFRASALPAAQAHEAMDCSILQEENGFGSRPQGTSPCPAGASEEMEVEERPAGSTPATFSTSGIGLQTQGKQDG

For the molecule `CCNC(=O)Nc1ncc(-c2cc(-c3c(C)cc(OC)cc3C)nc(-c3cnccn3)n2)s1`, the inhibition result at LIM domain kinase 1 [1] and at LIM domain kinase 2 [12] was “Dose-dependent effect” throughout. Further, the IC50 was 0.038 µM against LIM domain kinase 2 [2]; 0.058 µM against LIM domain kinase 1 [8]; 0.252 µM in experiment [10]; over 50 µM in the experiment with HT-1080 [15]; 0.455 µM in experiment [17]. Also, the outcome (in experiment [3]; in [4]; with HT-1080 [5]; in experiment [7]; in experiment [9]; at LIM domain kinase 2 [11]) was Active. Besides, the outcome in experiment [13], in [14] and in experiment [16] was Active. Besides, the result in [6] was inactive.
